Key:
[1] = molecular target: T1, Isoleucine--tRNA ligase (Staphylococcus aureus, UniProt P41972); assay: Compound tested for the inhibition of Staphylococcus aureus isoleucyl-tRNA synthetase
T1 sequence (P41972 whole entry): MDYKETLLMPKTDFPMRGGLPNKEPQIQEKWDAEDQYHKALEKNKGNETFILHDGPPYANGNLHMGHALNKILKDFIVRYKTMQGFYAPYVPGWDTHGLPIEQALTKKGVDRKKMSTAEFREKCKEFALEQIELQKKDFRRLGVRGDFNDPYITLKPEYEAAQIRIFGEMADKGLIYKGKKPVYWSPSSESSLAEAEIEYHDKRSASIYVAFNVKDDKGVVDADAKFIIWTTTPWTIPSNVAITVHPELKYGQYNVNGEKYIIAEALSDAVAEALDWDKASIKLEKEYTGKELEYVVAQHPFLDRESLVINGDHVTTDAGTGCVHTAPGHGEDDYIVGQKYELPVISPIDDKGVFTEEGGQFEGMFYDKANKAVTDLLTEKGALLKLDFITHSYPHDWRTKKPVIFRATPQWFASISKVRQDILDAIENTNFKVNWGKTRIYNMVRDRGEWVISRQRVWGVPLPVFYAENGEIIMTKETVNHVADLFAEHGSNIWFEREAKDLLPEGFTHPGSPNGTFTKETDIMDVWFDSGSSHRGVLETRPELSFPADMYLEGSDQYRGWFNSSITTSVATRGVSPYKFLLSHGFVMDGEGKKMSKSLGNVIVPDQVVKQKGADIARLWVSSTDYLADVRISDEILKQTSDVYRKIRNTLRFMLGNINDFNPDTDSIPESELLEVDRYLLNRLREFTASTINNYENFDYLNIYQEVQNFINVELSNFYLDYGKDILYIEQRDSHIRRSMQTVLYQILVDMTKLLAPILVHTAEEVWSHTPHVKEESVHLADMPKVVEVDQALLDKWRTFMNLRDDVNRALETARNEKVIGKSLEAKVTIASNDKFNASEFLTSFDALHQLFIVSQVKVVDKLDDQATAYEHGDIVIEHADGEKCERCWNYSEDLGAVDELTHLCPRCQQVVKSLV

[2] = Selectivity ratio of human to that of Escherichia coli was determined for isoleucyl-tRNA synthetase
[3] = molecular target: T2, Isoleucine--tRNA ligase, cytoplasmic (Homo sapiens, UniProt P41252); assay: Compound tested for the inhibition of human isoleucyl-tRNA synthetase
T2 sequence (P41252 whole entry): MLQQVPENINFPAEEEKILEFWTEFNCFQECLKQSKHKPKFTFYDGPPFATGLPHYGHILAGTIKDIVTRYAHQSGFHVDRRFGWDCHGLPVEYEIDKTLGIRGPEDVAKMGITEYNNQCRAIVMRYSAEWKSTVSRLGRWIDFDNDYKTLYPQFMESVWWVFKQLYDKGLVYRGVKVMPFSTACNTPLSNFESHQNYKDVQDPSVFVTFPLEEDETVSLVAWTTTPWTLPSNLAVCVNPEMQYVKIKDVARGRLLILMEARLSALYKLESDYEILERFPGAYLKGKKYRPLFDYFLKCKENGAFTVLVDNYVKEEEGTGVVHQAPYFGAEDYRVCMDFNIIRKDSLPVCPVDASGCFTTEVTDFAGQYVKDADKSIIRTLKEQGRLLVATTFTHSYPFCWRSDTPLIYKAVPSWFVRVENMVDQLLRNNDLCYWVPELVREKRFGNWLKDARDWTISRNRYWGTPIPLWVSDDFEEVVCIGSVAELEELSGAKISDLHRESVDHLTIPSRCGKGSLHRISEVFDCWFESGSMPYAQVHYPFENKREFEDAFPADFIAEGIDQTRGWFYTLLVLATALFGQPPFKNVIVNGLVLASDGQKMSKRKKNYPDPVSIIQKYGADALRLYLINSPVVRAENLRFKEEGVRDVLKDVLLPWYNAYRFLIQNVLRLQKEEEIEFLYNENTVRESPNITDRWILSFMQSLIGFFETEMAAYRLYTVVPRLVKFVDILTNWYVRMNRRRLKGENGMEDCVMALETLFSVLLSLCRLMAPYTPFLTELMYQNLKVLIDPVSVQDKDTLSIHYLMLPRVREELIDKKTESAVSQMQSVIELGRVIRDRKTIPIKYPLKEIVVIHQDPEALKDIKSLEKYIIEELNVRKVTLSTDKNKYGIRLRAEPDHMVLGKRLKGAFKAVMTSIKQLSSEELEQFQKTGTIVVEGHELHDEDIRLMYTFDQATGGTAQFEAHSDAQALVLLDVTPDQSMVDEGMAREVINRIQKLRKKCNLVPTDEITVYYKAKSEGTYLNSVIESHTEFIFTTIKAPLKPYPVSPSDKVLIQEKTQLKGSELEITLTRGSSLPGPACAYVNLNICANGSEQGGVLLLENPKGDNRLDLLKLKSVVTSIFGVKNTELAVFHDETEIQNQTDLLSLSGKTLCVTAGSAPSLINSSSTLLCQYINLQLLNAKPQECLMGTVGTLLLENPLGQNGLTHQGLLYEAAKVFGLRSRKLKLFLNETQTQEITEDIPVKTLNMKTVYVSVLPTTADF

[4] = Selectivity ratio of human to that of Escherichia coli was determined for leucyl-tRNA synthetase
[5] = molecular target: S. aureus MRSA LeuRS (Staphylococcus aureus, UniProt P67513); assay: Compound tested for the inhibition of Staphylococcus aureus Leucyl-tRNA synthetase
[6] = molecular target: Leucine--tRNA ligase, cytoplasmic (Homo sapiens, UniProt Q9P2J5); assay: Compound tested for the inhibition of human Leucyl-tRNA synthetase
Leucine--tRNA ligase, cytoplasmic, sequence (Q9P2J5 whole entry): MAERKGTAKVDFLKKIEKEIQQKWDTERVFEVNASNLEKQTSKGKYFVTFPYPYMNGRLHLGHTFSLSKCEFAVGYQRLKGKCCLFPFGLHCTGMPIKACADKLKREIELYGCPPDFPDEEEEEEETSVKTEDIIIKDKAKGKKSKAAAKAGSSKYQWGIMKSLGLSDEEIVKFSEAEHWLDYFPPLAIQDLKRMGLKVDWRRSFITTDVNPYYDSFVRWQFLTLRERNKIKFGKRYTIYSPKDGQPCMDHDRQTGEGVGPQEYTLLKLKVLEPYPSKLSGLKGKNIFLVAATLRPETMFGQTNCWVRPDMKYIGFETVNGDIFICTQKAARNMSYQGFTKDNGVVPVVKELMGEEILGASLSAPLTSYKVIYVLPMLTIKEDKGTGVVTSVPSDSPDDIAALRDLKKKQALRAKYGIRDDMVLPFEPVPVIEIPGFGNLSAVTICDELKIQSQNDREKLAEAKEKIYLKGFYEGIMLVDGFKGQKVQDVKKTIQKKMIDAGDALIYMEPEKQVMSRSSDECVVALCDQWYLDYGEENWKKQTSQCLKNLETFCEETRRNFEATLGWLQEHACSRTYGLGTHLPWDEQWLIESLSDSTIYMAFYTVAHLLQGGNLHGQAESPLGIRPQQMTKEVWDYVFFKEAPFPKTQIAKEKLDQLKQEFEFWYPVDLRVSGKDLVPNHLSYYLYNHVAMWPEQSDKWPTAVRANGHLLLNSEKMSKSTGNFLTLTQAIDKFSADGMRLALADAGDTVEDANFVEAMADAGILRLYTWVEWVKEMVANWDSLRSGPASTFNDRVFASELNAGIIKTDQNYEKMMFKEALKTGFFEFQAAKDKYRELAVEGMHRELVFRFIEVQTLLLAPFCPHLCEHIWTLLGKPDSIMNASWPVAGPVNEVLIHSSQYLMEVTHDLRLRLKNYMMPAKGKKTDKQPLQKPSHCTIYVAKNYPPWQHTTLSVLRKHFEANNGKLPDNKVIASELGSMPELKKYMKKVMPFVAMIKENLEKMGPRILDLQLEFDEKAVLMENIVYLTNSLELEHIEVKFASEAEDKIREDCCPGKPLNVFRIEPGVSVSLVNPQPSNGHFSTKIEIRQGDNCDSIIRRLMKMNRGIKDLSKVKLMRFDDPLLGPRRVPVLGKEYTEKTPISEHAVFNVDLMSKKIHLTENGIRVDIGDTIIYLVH

Row | IC50 [1] | Selectivity [2] | IC50 [3] | Selectivity [4] | IC50 [5] | IC50 [6] | Compound
1 | 40 nM | 10 | 300 nM |  |  |  | CCC(C)[C@H](N)C(=O)NS(=O)(=O)OC[C@H]1O[C@@H](c2nc(CCc3ccccc3)cs2)[C@H](O)[C@@H]1O (stereo not given in full)
2 | 300 nM | 3.3 | 100 nM |  |  |  | CCC(C)[C@H](N)C(=O)NS(=O)(=O)OC[C@H]1O[C@@H](c2nc(-c3ccccc3OC)cs2)[C@H](O)[C@@H]1O (stereo not given in full)
3 | 120 nM | 9.3 | 1020 nM |  |  |  | CCC(C)[C@H](N)C(=O)NS(=O)(=O)OC[C@H]1O[C@@H](c2nc(CCc3ccc(Oc4ccccc4)cc3)cs2)[C@H](O)[C@@H]1O (stereo not given in full)
4 |  |  |  | > 365 | 90 nM | 730 nM | CC(C)C[C@H](N)C(=O)NS(=O)(=O)OC[C@H]1O[C@@H](c2nc(CCc3ccccc3)cs2)[C@H](O)[C@@H]1O
5 |  |  |  | 192 | 100 nM | 1150 nM | CC(C)C[C@H](N)C(=O)NS(=O)(=O)OC[C@H]1O[C@@H](c2nc(CCc3ccc(Oc4ccccc4)cc3)cs2)[C@H](O)[C@@H]1O
6 | 8000 nM |  | 330 nM |  |  |  | CC[C@H](C)[C@H](N)C(=O)NS(=O)(=O)OC[C@H]1O[C@@H](c2nc(-c3ccccc3)cs2)[C@H](O)[C@@H]1O

Continued, molecule first:

Row | Compound | IC50 [1] | Selectivity [2] | IC50 [3] | Selectivity [4] | IC50 [5] | IC50 [6]
7 | CCC(C)[C@H](N)C(=O)NS(=O)(=O)OC[C@H]1O[C@@H](c2nc(-c3ccc(OC)cc3)cs2)[C@H](O)[C@@H]1O (stereo not given in full) | 100 nM | 2 | 200 nM |  |  | 
8 | CCC(C)[C@H](N)C(=O)NS(=O)(=O)OC[C@H]1O[C@@H](c2nc(-c3ccc4cc(OC)ccc4c3)cs2)[C@H](O)[C@@H]1O (stereo not given in full) | 130 nM | 4 | 400 nM |  |  | 
9 | CCC(C)[C@H](N)C(=O)NS(=O)(=O)OC[C@H]1O[C@@H](c2nc(-c3cccc(OC)c3)cs2)[C@H](O)[C@@H]1O (stereo not given in full) | 50 nM | 2.3 | 34 nM |  |  | 
10 | CC(C)C[C@H](N)C(=O)NS(=O)(=O)OC[C@H]1O[C@@H](c2nc(-c3ccc(Oc4ccccc4)cc3)cs2)[C@H](O)[C@@H]1O |  |  |  | 375 | > 54 nM | 600 nM
11 | CCC(C)[C@H](N)C(=O)NS(=O)(=O)OC[C@H]1O[C@@H](c2nc(-c3ccc(Oc4ccccc4)cc3)cs2)[C@H](O)[C@@H]1O (stereo not given in full) | 270 nM | 8.2 | 370 nM |  |  | 
12 | CCC(C)[C@H](N)C(=O)NS(=O)(=O)OC[C@H]1O[C@@H](c2nc(-c3cc(C#N)co3)cs2)[C@H](O)[C@@H]1O (stereo not given in full) | 240 nM | 1 | 120 nM |  |  | 

— ChEMBL document CHEMBL1131923, “Synthesis and structure-activity relationships of a series of novel thiazoles as inhibitors of aminoacyl-tRNA synthetases” (Bioorg Med Chem Lett, 1999)
